# Patent US12441767B2 (priority 2020, dated 2025)
# “Also recorded” adds a separate entry of the source. Where two headings read alike, the source gives them in different places. Ends that are not written are not given here.
# Legend:
# [1] = system: p-Smad2; type: cell-based, human
# [2] = system: p-Erk1/2; type: cell-based, human
# [3] = system: human ES cells; assay: Cell-penetrating ability of FITC-labeled peptides, confocal microscopy; type: cell-based; settings: 24 h
# Description: The human ES cells were treated with FITC-labeled P13 and M6 for 24 h, respectively, and the positions of the peptides were confirmed under a confocal microscope by immunostaining with nuclear dye combined with cytoplasmic membrane dye.
# Immunostaining of human ES cells treated with the fluorescently labeled P13/M6: Human ES cells were cultured on a sterile cover slide, and a 12-well plate was coated with matrix gel at a concentration of 1 mg/ml for 1-2 h. After 24 h, the cells were washed with a DMEM-F12 culture medium, the E8 culture medium was used for replacement, and the cells were treated with the fluorescently labeled peptide for 24 h. Then, the cell membranes were stained by using the CellMask™ crimson plasma membrane (Thermo Fisher), and incubation was performed at 37° C. for 10 min. The staining solution was removed, 200 μL of 4.0% formaldehyde was added to the culture medium, and incubation was performed at 37° C. for 10 min. The culture medium was then removed. The cells were washed with 1×PBS three times and incubated with 10 μl of DAPI (a DNA staining agent) and a mounting medium for one minute, and the cover slide was mounted and sealed with nail polish to prevent drying. The samples were imaged with a Carl Zeiss confocal LSM710 microscope.
# [4] = system: OCT4, SOX2 and NANOG; assay: qPCR of self-renewal markers in human ES cells after five passages; type: cell-based; settings: for expression levels of SOX2 and NANOG: one-way ANOVA ***p<0.001
# From the text: The self-renewal markers of the human ES cells were detected by using a quantitative polymerase chain reaction (qPCR) method.
# The differential expressions of mRNAs of OCT4, SOX2 and NANOG were detected under the culture conditions of the above eight different culture media. Please refer to FIG. 2b for the detection results.
# The self-renewal markers of the human ES cells were detected by using qPCR assay.
# The differential expressions of mRNAs of OCT4, SOX2 and NANOG were detected under 12 different conditions. Please refer to FIG. 3b for the detection results (in the figure, the samples from left to right were E6, E6+P13, E6+M6, E6+TGFβ1, E6+TGFβ1+P13, E6+TGFβ1+M6, E6+FGF2, E6+FGF2+P13, E6+FGF2+M6, E8, E8+P13 and E8+M6).
# [5] = system: human ES cells; assay: Morphology (colony formation) of human ES cells after five serial passages; type: cell-based
# Description: Two groups were prepared, with four different culture media (E6, E6+TGFβ1, E6+FGF2 and E8) in each group, and the peptide P13 was added to the 4 culture media in group 1. A total of eight different culture media were prepared.
# The human ES cells were serially passaged five times under eight different conditions to detect the differences of morphologies and pluripotency markers. Please refer to FIG. 2a for the morphological difference results observed after five passages.
# On the basis of the preliminary results, three groups were prepared, with four different culture media (E6, E6+TGFβ1, E6+FGF2 and E8) in each group, the peptide M6 was added to the four culture media in group 1, respectively, and the P13 was added in another group as the control. In this way, a total of twelve different culture media were prepared.
# The human ES cells were serially passaged five times under 12 different conditions to detect the differences of morphologies and pluripotency markers. Please refer to FIG. 3a for the morphological difference results obtained after five passages (in the figure, the samples from left to right were E6, E6+P13, E6+TGFβ1, E6+TGFβ1+P13, E6+FGF2, E6+FGF2+P13, E8 and E8+P13).
# [6] = system: human ES cells; assay: Survival / proliferation of human ES cells (cell number by flow cytometry); type: cell-based; settings: E8 culture medium + peptide vs E8 culture medium; 24 h; P13 final concentration 200 μM; one-way ANOVA
# [7] = as reported in the literature; cited from earlier work
# [8] = E6 culture medium + peptide vs E6 control culture medium
compound,measurement,setting,value
"TGFβ1: growth factor component of the E8 culture medium, 25.6 kDa homodimer linked by a disulfide bond",p-Smad2 expression,[1]; E6 with 1.0 μmol LDN189193 treated with TGFβ or M6 vs E6 with 1.0 μmol LDN189193,up-regulated
same,p-Smad2 expression,[1]; growth factor in E6 culture medium (FIG. 5d lanes 3-4),up-regulated
same,p-Erk1/2 expression,[2]; E6 with M6 or TGFβ in presence of SB431542 (10 μmol) / A8301 (1.0 μmol),not observed
Gonearrestide (WCYKLPDRVSIKEKGRCN-NH2; cysteine pairing not given here) [P13],position of FITC-labeled peptide in human ES cells,"[3]; E8, confocal microscope",bound to the plasma membranes
same,cell-penetrating peptide (CPP) property,[3]; none found in cytoplasm,did not belong to the CPP family
same,"mRNA expression levels of OCT4, SOX2 and NANOG","[4]; E6 + peptide in comparison with other conditions, five passages",low mRNA expression levels
same,expression levels of SOX2 and NANOG,[4]; E6+FGF2 + peptide vs E6,significantly up-regulated
same,"mRNA expression of OCT4, SOX2 and NANOG",[4]; E6+TGFβ1 + peptide vs E6+TGFβ1,up-regulated
same,expression levels of SOX2 and NANOG,[4]; E8 + peptide vs E6,significantly up-regulated
same,colony-forming morphology of human ES cells,"[5]; E6+TGFβ + peptide, after five passages, vs E6+TGFβ",still maintained their colony morphologies; also recorded: maintained their colony-forming morphologies; also recorded: mixed state of colonies and dispersed cells
same,morphology of human ES cells,"[5]; peptide added to E6+FGF2, five generations",no significant morphological differences; also recorded: no significant difference in their morphologies
same,morphology of human ES cells,"[5]; peptide added to E8, five generations",no significant morphological differences; also recorded: no significant difference in their morphologies
same,expression level of p-Smad2,[1]; [8],significantly up-regulated
same,expression level of p-Smad2,[1]; E6 with P13 and/or TGFβ1 vs E6+FGF2,up-regulated
same,expression level of p-Smad2,[1]; E8 with P13 vs E8,up-regulated
same,number of human ES cells that survived,[6],significantly higher
same,expression level of p-Erk1/2,[2]; [8],significantly up-regulated
same,expression level of p-Erk1/2,[2]; E6 with P13 and/or FGF2 vs E6+TGFβ1,up-regulated
same,expression level of p-Erk1/2,[2]; E8 with P13 vs E8,not significantly up-regulated
"FGF2: growth factor component of the E8 culture medium, 16.4 kDa",p-Erk1/2 expression,[2]; growth factor in E6 culture medium (FIG. 5d lanes 1-2),up-regulated
N=C(N)NCCC[C@H](N)C(=O)O [arginine],heparin-binding affinity relative to lysine,[7],2.5 times
